What was measured:
[1] = biological target: BMP-4 receptors; details: 125I-BMP-4; read-out: apparent dissociation constant; cited from earlier work
[2] = system: IL-8 production by synoviocyte cultures; test: IL-8 production by synoviocyte cultures in response to IL-1; type: cell-based, human
Experimental: (§1) 1. Cell Culture. […] Experiments were performed on cells from passages 3–8. […] The growth medium was replaced twice weekly.
The kinetics of induction of interleukin-6 in response to stimulation with IL-1 are described. Synoviocyte cultures were exposed to the indicated treatments with IL-1 plus either histamine to activate signaling through inositol trisphosphate (InsP3)/protein kinase C pathway or isproterenol to activate increases in intracellular cAMP. Production of PGE2, IL-6, and IL-8 were measured in the culture supernatants following 1, 2, 4, 6, and 24 hr treatments. In this experiment, each treatment interval was performed in a separate culture. […] IL-1 also produced a significant elevation of IL-8 (2000 pg/ml), which was first measurable at 6 hr of treatment.
The effect of ketoprofen on the induction of cytokine production by IL-1 and GPCR agonists was examined. The protocol also tested the effects of IL-1 concentration dependence on the IL-6 steady state induction. Synoviocyte cultures were exposed to indicated concentrations of IL-1 and GPCR agonists. Culture supernatants were collected and replaced with fresh media aliquots containing the same agonist additions at 8-hr intervals. PGE2, IL-6, and IL-8 in the supernatants were assayed as described.

[3] = system: IL-6 production by synovial cultures; test: IL-6 production by synovial cultures stimulated with IL-1 plus GPCR ligands; type: cell-based, human; details: 0.75 μM ketoprofen
Experimental: FIG. 9 is a graphical representation of the effect of ketoprofen on IL-6 production by synovial cultures at 16 hours in the presence of the indicated concentrations of IL-1 plus the added G-protein coupled receptor ligands. Cultures were incubated for 16 hours with IL-1 at the indicated concentration (0.3, 1.0 and 3.0 pg/ml) in the absence and presence of 0.75 μM ketoprofen in experimental growth medium with one of the following additional receptor ligands: 1) isoproterenol (ISO) at 1.0 μM to activate the camp pathway, or 2) histamine (HIS) at 100 μM to activate the IP3/calcium pathway. Culture supernatants were collected and replaced with fresh media aliquots containing the same agonist additions at 8 hour intervals. Following treatment, the supernatant medium corresponding to the treatment interval from 8 to 16 hours was collected and analyzed for IL-6.
as §1
4. Measurement of IL-6. Production of the cytokine, IL-6, was also measured in aliquots of supernatant culture media which had been stored frozen at −80° C. IL-6 was measured by sandwich ELISA with alkaline phosphatase detection as described by the manufacturer (Pharmingen) and quantitated using standard curves prepared with the respective pure recombinant human cytokines. […]

[4] = system: prostaglandin E2 production in synovial cultures; test: PGE2 formation in cultured human synovial fibroblasts during overnight IL-1 priming; type: cell-based; details: Fibroblast, co-incubation with IL-1 (10 U/ml), 16 hr, mean±SEM
Experimental: as §1
2. Experimental Treatments.
3. Measurement of Prostaglandin E2. […] Samples were stored at −80° until processing.
1. Data analysis. Immunoassays were routinely performed in duplicate aliquots from each culture. Experimental determinations were performed on duplicate or triplicate cultures. Each experiment was repeated in at least two cell lines. Nonlinear regression curve fitting and statistical analyses were performed using Graph-PAD Prism software (San Diego, Calif.).
The actions of ketoprofen, a cyclooxygenase inhibitor, to attenuate PGE2 formation were determined by co-incubation with IL-1 during prolonged exposure (16 hr); and by brief pre-incubation prior to a subsequent GPCR agonist challenge interval, as shown in FIG. 8.

[5] = system: rheumatoid synovial fibroblasts (RSF); details: concentrations of 10–150 μM; IL-1 or IL-8 stimulated; cited from earlier work
[6] = in vivo, cited from earlier work
[7] = system: adjuvant-induced arthritis; details: p.o. at 30 and 60 mg/kg/day; cited from earlier work
[8] = system: paw inflammation; details: dose of 50 mg/kg; cited from earlier work
[9] = system: prostaglandin E2 production in synovial cultures; details: histamine 100 μM or bradykinin 1 μM; overnight IL-1 (10 U/ml) priming
Experimental: Cell Culture. Synovial tissue was obtained from osteoarthritis patients undergoing joint replacement surgery through the Clinical Research Center, MacNeal Hospital, and transported to the laboratory in Dulbecco's Modified Eagle's Medium (DMEM) containing penicillin (100 units/ml), streptomycin (100 μg/ml), and fungizone (0.25 μg/ml). The synovium was dissected and minced with scissors, and plated as explants in culture medium composed of DMEM containing L-glutamine (2 mM), heat inactivated fetal bovine serum (10% v/v), plus antibiotics. Cultures were housed at 37° C. in a humidified atmosphere of 5% CO2. Adherent synovial cells grew out of the explants within 2–3 weeks, and were passaged by trypsinization. Seed cultures were fed twice weekly and were passaged at confluency. Experiments were performed on cells from passages 3–8. Experimental cultures were plated into 35 mm dishes at a density of 7.5×10^3 cells/cm^2 in 2 ml culture medium. […]
Measurement of Prostaglandin E2. […] Aliquots of culture supernatant were analyzed by competitive binding radioimmunoassay as specified by the manufacturer (Sigma Chemical Co.), using an antibody with equivalent reactivity toward prostaglandins E2 and E1. For quantitation, a standard curve was prepared with each assay using fixed concentrations of [^3H]prostaglandin E2, and increasing concentrations of authentic competing prostaglandin E2.

[10] = system: experimental OA; details: sustained systemic delivery; cited from earlier work
[11] = biological target: T1, Type I IL-1R (Homo sapiens, UniProt P14778); details: cells that express the Type I IL-1R; cited from earlier work
T1 sequence (P14778 18-569): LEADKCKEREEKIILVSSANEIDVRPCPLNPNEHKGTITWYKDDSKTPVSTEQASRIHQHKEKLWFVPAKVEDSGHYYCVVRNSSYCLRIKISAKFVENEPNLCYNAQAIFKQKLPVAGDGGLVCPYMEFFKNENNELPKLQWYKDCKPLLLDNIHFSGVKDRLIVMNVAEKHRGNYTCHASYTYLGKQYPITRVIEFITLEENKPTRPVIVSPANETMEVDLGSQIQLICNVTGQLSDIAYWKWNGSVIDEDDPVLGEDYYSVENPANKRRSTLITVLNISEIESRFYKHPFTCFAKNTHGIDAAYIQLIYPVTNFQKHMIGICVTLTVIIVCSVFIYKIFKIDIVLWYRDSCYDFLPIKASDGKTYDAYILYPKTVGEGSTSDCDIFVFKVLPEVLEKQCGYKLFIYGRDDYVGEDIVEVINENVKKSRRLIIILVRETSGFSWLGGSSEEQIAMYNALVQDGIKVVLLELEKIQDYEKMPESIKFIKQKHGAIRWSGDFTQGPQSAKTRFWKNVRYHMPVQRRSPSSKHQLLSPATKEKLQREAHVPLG

[12] = biological target: T1, Type I IL-1R; details: in vitro efficacy; cited from earlier work
[13] = system: PKC; details: read-out: IC50 PKC inhibitory activity; cited from earlier work
[14] = system: NFκB activation; details: IL-1-stimulated RSF; cited from earlier work

For “BMP-4: bone morphogenetic protein, member of the TGF-β superfamily”, the Kd [1] is listed as 0.11 nM.

With `CC(C(=O)O)c1cccc(C(=O)c2ccccc2)c1` (stereo not shown) [ketoprofen] the “effect on IL-8 production in response to IL-1” value [2] was “reduces”, the “effect on IL-6 production in histamine or isoproterenol/IL-1 co-stimulated samples” value ([3]; histamine 100 μM or isoproterenol 1.0 μM plus IL-1) was “inhibited” and the inhibition at 0.75 µM ([3]; Homo sapiens, 1.0 pg/ml IL-1, 16 hr, read-out: inhibition of IL-1-elicited IL-6 production) was at most 50%. It also gave an IC50 [4] of 4.5 ± 0.8 nM.

In the case of `c1cnc2c(c1)ccc1cccnc12` [1,10-o-phenanthroline], the “effect on penetration of cartilage by RSF cells” value [5] is given as “substantially inhibited”.

In the case of Ac-FEWTPGWYQJY-NH2 [AF11567], the plasma half-life [6] is given as 2.3 to 2.6 h.

In the case of `CC(C)C[C@H](NP(=O)(O)O[C@@H]1O[C@@H](C)[C@H](O)[C@@H](O)[C@H]1O)C(=O)N[C@@H](Cc1c[nH]c2ccccc12)C(=O)O` [phosphoramidon], the “effect on penetration of cartilage by RSF cells” value [5] is listed as “substantially inhibited”.

For `C[S+]([O-])c1ccc(-c2nc(-c3ccc(F)cc3)c(-c3ccncc3)[nH]2)cc1` (stereo not shown) [SB203580, 4-(4-fluorophenyl)-2-(4-methylsulfinylphenyl)-5-(4-pyridyl)imidazole], the antiarthritic activity [7] is given as “Antiarthritic activity” and the “effect on paw inflammation” value [8] is given as “significant inhibition of paw inflammation”.

With `NCCc1c[nH]cn1` [histamine] the “fold increase in PGE2 production compared to IL-1 primed cells receiving no GPCR agonist” value [9] was 5–10 fold.

In the case of `CC(=N)NCCCC[C@H](N)C(=O)O` [L-NIL], the “effect on progression of experimental OA” value [10] is given as “reduces the progression of experimental OA”.

`O=C(c1ccccc1)c1ccc2n1CCC2C(=O)O` (stereo not shown) [ketorolac] showed an IC50 [4] of 2.2 ± 0.4 nM.

In the case of “IL-1Ra: naturally occurring secreted, soluble ligand that binds to IL-1 receptors; 22 kD protein”, the “molar excess required to inhibit IL-1 biological responses” value [11] is given as 10–100 fold.

For Ac-FEWTPGWYQJYALPL-NH2 [AF12198], the IC50 [12] is listed as 0.5 to 2 nM and the metabolism ([6]; iv) is listed as “rapid metabolism”.

For `Cn1c2ccccc2c2c3c(c4c5ccccc5n(CCC#N)c4c21)CNC3=O` [G-6203], the IC50 [13] is listed as 2000 to 10000 nM.

`COc1ccc2c(c1)c(CC(=O)O)c(C)n2C(=O)c1ccc(Cl)cc1` [indomethacin] gave an IC50 [4] of 3.2 ± 1.5 nM.

In the case of calphostin C, the IC50 [13] is given as 50000 nM.

For `CN(C)C[C@H]1CCn2c(c(C3=C(c4cn(C)c5ccccc45)C(=O)NC3=O)c3ccccc32)C1` [RO 32-0432], the “activity on PGE2 production” value [14] is given as “inactive”.

For `O=C1CCNC(=O)c2[nH]ccc21` [aldisine], the “activity on PGE2 production” value [14] is given as “inactive”.

`CCc1cccc2c3c([nH]c12)C(CC)(CC(=O)O)OCC3` (stereo not shown) [etodolac] showed an IC50 [4] of 15.2 ± 4.6 nM.
